# From ChEMBL document CHEMBL3774317, “Design and synthesis of novel tamoxifen analogues that avoid CYP2D6 metabolism” (Eur J Med Chem, 2016)
# How the values were obtained:
# Assay type in all cases: functional
# EKVX [1] = assay: Cytotoxicity against human EKVX cells assessed as cell growth at 5 uM after 48 hrs by SRB assay; settings: read-out: Activity
# [2] = Cytotoxicity against human NCI-ADR-RES cells assessed as cell growth at 5 uM after 48 hrs by SRB assay; settings: read-out: Activity
# [3] = Cytotoxicity against human PC3 cells assessed as cell growth at 0.5 uM after 48 hrs by SRB assay; settings: PC-3, 48 h, read-out: Activity
# [4] = Cytotoxicity against human HOP92 cells assessed as cell growth at 5 uM after 48 hrs by SRB assay; settings: HOP-92, 48 h, read-out: Activity
# CCRF-CEM [5] = assay: Cytotoxicity against human CCRF-CEM cells assessed as cell growth at 50 nM after 48 hrs by SRB assay; settings: read-out: Activity
# [6] = Cytotoxicity against human SF268 cells assessed as cell growth at 5 nM after 48 hrs by SRB assay; settings: SF-268, 48 h, read-out: Activity
# [7] = Cytotoxicity against human UACC62 cells assessed as cell growth at 0.5 uM after 48 hrs by SRB assay; settings: UACC-62, 48 h, read-out: Activity
# [8] = Cytotoxicity against human SF268 cells assessed as cell growth at 5 uM after 48 hrs by SRB assay; settings: SF-268, 48 h, read-out: Activity
# [9] = Cytotoxicity against human IGROV1 cells assessed as cell growth at 50 nM after 48 hrs by SRB assay; settings: IGROV-1, 48 h, read-out: Activity
# SK-MEL-28 [10] = assay: Cytotoxicity against human SK-MEL-28 cells assessed as cell growth at 50 nM after 48 hrs by SRB assay; settings: SK-MEL-28, 48 h, read-out: Activity
# MDA-MB-231 = assay: Cytotoxicity against human MDA-MB-231 cells assessed as cell growth at 50 nM after 48 hrs by SRB assay; settings: MDA-MB-231, 48 h, read-out: Activity
# Malme-3M [11] = assay: Cytotoxicity against human MALME-3M cells assessed as cell growth at 50 uM after 48 hrs by SRB assay; settings: read-out: Activity
# [12] = Cytotoxicity against human NCI-ADR-RES cells assessed as cell growth at 5 nM after 48 hrs by SRB assay; settings: read-out: Activity
# [13] = Cytotoxicity against human LOXIMVI cells assessed as cell growth at 50 nM after 48 hrs by SRB assay; settings: LOX IMVI, read-out: Activity
# SN12C [14] = assay: Cytotoxicity against human SN12C cells assessed as cell growth at 50 nM after 48 hrs by SRB assay; settings: read-out: Activity
# CCRF-CEM [15] = assay: Cytotoxicity against human CCRF-CEM cells assessed as cell growth at 0.5 uM after 48 hrs by SRB assay; settings: read-out: Activity
# [16] = Cytotoxicity against human HCC2998 cells assessed as cell growth at 5 nM after 48 hrs by SRB assay; settings: HCC 2998, 48 h, read-out: Activity
# [17] = Cytotoxicity against human OVCAR3 cells assessed as cell growth at 50 uM after 48 hrs by SRB assay; settings: OVCAR-3, 48 h, read-out: Activity
# 786-0 [18] = assay: Cytotoxicity against human 786-0 cells assessed as cell growth at 0.5 uM after 48 hrs by SRB assay; settings: 786-0, 48 h, read-out: Activity
# [19] = Cytotoxicity against human PC3 cells assessed as cell growth at 5 nM after 48 hrs by SRB assay; settings: PC-3, 48 h, read-out: Activity
# [20] = Cytotoxicity against human Caki1 cells assessed as cell growth at 0.5 uM after 48 hrs by SRB assay; settings: CAKI-1, 48 h, read-out: Activity
# SK-MEL-28 [21] = assay: Cytotoxicity against human SK-MEL-28 cells assessed as cell growth at 5 uM after 48 hrs by SRB assay; settings: SK-MEL-28, 48 h, read-out: Activity
# [22] = Cytotoxicity against human SF268 cells assessed as cell growth at 50 uM after 48 hrs by SRB assay; settings: SF-268, 48 h, read-out: Activity
# SN12C [23] = assay: Cytotoxicity against human SN12C cells assessed as cell growth at 5 nM after 48 hrs by SRB assay; settings: read-out: Activity
# NCI-H522 = assay: Cytotoxicity against human NCI-H522 cells assessed as cell growth at 0.5 uM after 48 hrs by SRB assay; settings: NCI-H522, 48 h, read-out: Activity
# Malme-3M [24] = assay: Cytotoxicity against human MALME-3M cells assessed as cell growth at 50 nM after 48 hrs by SRB assay; settings: read-out: Activity
# A549 [25] = assay: Cytotoxicity against human A549 cells assessed as cell growth at 10^-7 M after 48 hrs by SRB assay; settings: A549, 48 h, read-out: Activity
# ACHN = assay: Cytotoxicity against human ACHN cells assessed as cell growth at 10^-8 M after 48 hrs by SRB assay; settings: read-out: Activity
# EKVX [26] = assay: Cytotoxicity against human EKVX cells assessed as cell growth at 10^-7 M after 48 hrs by SRB assay; settings: read-out: Activity
# MDA-MB-468 = assay: Cytotoxicity against human MDA-MB-468 cells assessed as cell growth at 10^-4 M after 48 hrs by SRB assay; settings: MDA-MB-468, 48 h, read-out: Activity
# 786-0 [27] = assay: Cytotoxicity against human 786-0 cells assessed as cell growth at 10^-8 M after 48 hrs by SRB assay; settings: 786-0, 48 h, read-out: Activity
# [28] = Cytotoxicity against human Hs 578T cells assessed as cell growth at 10^-8 M after 48 hrs by SRB assay; settings: read-out: Activity
# [29] = Cytotoxicity against human HOP92 cells assessed as cell growth at 10^-8 M after 48 hrs by SRB assay; settings: HOP-92, 48 h, read-out: Activity
# K562 = assay: Cytotoxicity against human K562 cells assessed as cell growth at 10^-7 M after 48 hrs by SRB assay; settings: K562, 48 h, read-out: Activity
# [30] = Cytotoxicity against human HOP62 cells assessed as cell growth at 10^-7 M after 48 hrs by SRB assay; settings: HOP-62, 48 h, read-out: Activity
# SK-MEL-28 [31] = assay: Cytotoxicity against human SK-MEL-28 cells assessed as cell growth at 10^-4 M after 48 hrs by SRB assay; settings: SK-MEL-28, 48 h, read-out: Activity
# SK-MEL-2 = assay: Cytotoxicity against human SK-MEL-2 cells assessed as cell growth at 10^-4 M after 48 hrs by SRB assay; settings: SK-MEL-2, 48 h, read-out: Activity
# Malme-3M [32] = assay: Cytotoxicity against human MALME-3M cells assessed as cell growth at 10^-4 M after 48 hrs by SRB assay; settings: read-out: Activity
# A549 [33] = assay: Cytotoxicity against human A549 cells assessed as cell growth at 10^-5 M after 48 hrs by SRB assay; settings: A549, 48 h, read-out: Activity
# [34] = Cytotoxicity against human Caki1 cells assessed as cell growth at 10^-7 M after 48 hrs by SRB assay; settings: CAKI-1, 48 h, read-out: Activity
# [35] = Cytotoxicity against human Caki1 cells assessed as cell growth at 10^-4 M after 48 hrs by SRB assay; settings: CAKI-1, 48 h, read-out: Activity
# [36] = Cytotoxicity against human UO31 cells assessed as cell growth at 10^-5 M after 48 hrs by SRB assay; settings: UO-31, 48 h, read-out: Activity
# [37] = Cytotoxicity against human HCC2998 cells assessed as cell growth at 10^-4 M after 48 hrs by SRB assay; settings: HCC 2998, 48 h, read-out: Activity
# MCF7 = assay: Cytotoxicity against human MCF7 cells assessed as cell growth at 10^-8 M after 48 hrs by SRB assay; settings: MCF7, 48 h, read-out: Activity
smiles,measurement,setting,value
CCCCCCCCCC(=O)Oc1ccc(/C(=C(/C)c2ccccc2)c2ccc(OCCN3CCCC3)cc2)cc1,growth at 5 µM,EKVX [1],74%
same,growth at 5 µM,[2],82%
same,growth at 0.5 µM,[3],86%
same,growth at 5 µM,[4],72%
same,growth at 0.05 µM,CCRF-CEM [5],100%
same,growth at 0.005 µM,[6],100%
same,growth at 0.5 µM,[7],64%
same,growth at 5 µM,[8],83%
same,growth at 0.05 µM,[9],95%
same,growth at 0.05 µM,SK-MEL-28 [10],100%
same,growth at 0.05 µM,MDA-MB-231,105%
same,growth at 50 µM,Malme-3M [11],-82%
same,growth at 0.005 µM,[12],101%
same,growth at 0.05 µM,[13],97%
same,growth at 0.05 µM,SN12C [14],101%
same,growth at 0.5 µM,CCRF-CEM [15],76%
same,growth at 0.005 µM,[16],98%
same,growth at 50 µM,[17],-84%
same,growth at 0.5 µM,786-0 [18],79%
same,growth at 0.005 µM,[19],100%
same,growth at 0.5 µM,[20],75%
same,growth at 5 µM,SK-MEL-28 [21],89%
same,growth at 50 µM,[22],-72%
same,growth at 0.005 µM,SN12C [23],102%
same,growth at 0.5 µM,NCI-H522,98%
same,growth at 0.05 µM,Malme-3M [24],98%
C/C(=C(/c1ccc(O)cc1)c1ccc(OCCN2CCCC2)cc1)c1ccccc1,growth at 0.1 µM,A549 [25],102%
same,growth at 0.01 µM,ACHN,93%
same,growth at 0.1 µM,EKVX [26],93%
same,growth at 100 µM,MDA-MB-468,-87%
same,growth at 0.01 µM,786-0 [27],97%
same,growth at 0.01 µM,[28],100%
same,growth at 0.01 µM,[29],98%
same,growth at 0.1 µM,K562,96%
same,growth at 0.1 µM,[30],95%
same,growth at 100 µM,SK-MEL-28 [31],-93%
same,growth at 100 µM,SK-MEL-2,-89%
same,growth at 100 µM,Malme-3M [32],-91%
same,growth at 10 µM,A549 [33],4%
same,growth at 0.1 µM,[34],88%
same,growth at 100 µM,[35],-100%
same,growth at 10 µM,[36],-25%
same,growth at 100 µM,[37],-80%
same,growth at 0.01 µM,MCF7,44%
